This is an account of results in patent publication US11339144B2 (Navitor Pharmaceuticals, Inc., priority 2017, dated 2022).

pIC50: −log10 of the molar value.

One test has as its target Rheb (Homo sapiens (Human), UniProt Q15382). Description: Affinity Selection Mass Spectrometry (ASMS). It is filed as binding. Conditions: affinity (R3/R0) in Affinity Selection Mass Spectrometry assay. How it is done:
Method 2 (Affinity Selection Mass Spectrometry
Protein: Rheb (19 KDa) in the following buffer: 20 mM Tris, pH 8.0, 200 mM NaCl, 2 mM DTT, 5 mM MgCl2 was prepared as under.
Human Rheb protein (I-169) was purified from BL21 (DE3) E. coli using a His-Smt-Rheb expression vector. The cell paste was lysed in lysis buffer (50 mM HEPES pH 7.5, 0.5 M NaCl, 5% Glycerol, 1% CHAPS, EDTA free protease inhibitor tablets, lysozyme to 1 mg/mL, benzonase 250U), sonicated, and purified on a HiTrap Ni Chelating Column (GE Healthcare) using the following buffer: 50 mM HEPES pH 7.5, 0.5 M NaCl, 5% Glycerol, and imidazole increasing in concentration from 5 mM to 500 mM. The His-Smt tag was cleaved using a U1p1 enzyme and dialyzed into 50 mM HEPES pH 7.5, 0.5 M NaCl, 5% Glycerol. The resultant protein was again purified on a Ni Chelating column to remove the U1p1 enzyme and His-Smt tag and then purified by size exclusion chromatography on a Sephacryl S-100 26/60 column into the following final buffer: 20 mM NaPhos pH 7.0, 100 mM NaCl, 5 mM MgCl2, 2 mM TCEP.
Concentrations: 60 μM Rheb, 180 μM GDP and 2 μM of each compound,
Ultrafiltration Filter (Sartorius, Germany) MW cutoff: 10 KDa
• (a) Sample preparation: Prepare sample for each group in 1.5 mL microcentrifuge tube according to the experimental design, total volume 550 μL. In a standard ASMS experiment there are two groups: Protein plus (P+L+) and protein minus (P−L+). • (b) Transfer 50 μL from the 550 μL to a vial as R0 sample. Incubate the rest solution for 30 min at room temperature. Then transfer the 500 μL into an ultrafiltration filter tube and centrifuge at 12×10^3 rpm for ˜10 min, leave about 50 μL solution (otherwise adjust this time). • (c) Add incubation buffer to the ultrafiltration filter tube to about 500 μL. Stir gently and centrifuge mixtures as above, leave about 50 μL solution. • (d) Repeat the step c. Transfer the remaining 50 μL upper layer solution to a new vial as R^3 sample. Sample Extraction: Add 150 μL MeCN to denature the protein completely. Centrifuge at 12×10^3 rpm for 5 min. Transfer the supernatant into LC-MS auto sampler vials for LC-MS analysis (5 uL injection).
Waters Acquity UPLC system, Waters ACQUITY UPLC BEH C18 column (2.1×50 mm, 1.7 μM); Mobile phase A: 0.1% formic acid solution, B: MeCN; 0.3 mL/min, 5 μL injection, gradient elution (Table 5).
Waters Synapt G1 Q-TOF system, positive or negative ion scan modes; Capillary voltage: 3.0 kV; Method: MSE; Mass range: m/z=100-1000; Source temperature: 120° C.; Desolvation temperature: 400° C.; Collision voltage: 35 V; Sampling Cone: 35 V; Extraction Cone: 4.0 V; Cone Gas: 50 L/h; Desolvation Gas: 800 L/h.

Test [1] deals with HA-GST-Rheb (GTP-γ-S loaded) activating mTORC1 (Homo sapiens (Human), UniProt Q15382). Description: Rheb-dependent in vitro kinase assay (Rheb-IVK; LanthaScreen or Western readout). It is filed as biochemical. Conditions: Rheb-dependent in vitro kinase assay; read-out: IVK IC50.
Chain of HA-GST-Rheb (GTP-γ-S loaded) activating mTORC1 (Q15382 1-181): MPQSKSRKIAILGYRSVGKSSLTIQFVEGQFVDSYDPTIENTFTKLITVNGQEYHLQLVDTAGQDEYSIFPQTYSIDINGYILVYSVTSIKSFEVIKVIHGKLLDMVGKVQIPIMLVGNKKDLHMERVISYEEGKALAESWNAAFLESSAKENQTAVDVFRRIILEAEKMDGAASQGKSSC

Chain of Rheb (Q15382 1-169 limits assumed): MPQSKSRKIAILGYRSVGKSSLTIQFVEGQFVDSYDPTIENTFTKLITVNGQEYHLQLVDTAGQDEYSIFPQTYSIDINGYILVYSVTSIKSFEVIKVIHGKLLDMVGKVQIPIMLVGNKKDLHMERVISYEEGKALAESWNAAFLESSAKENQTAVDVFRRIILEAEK

As to “1-(4-carboxybenzyl)-6-chloro-4-(3,4-dichlorophenoxy)-1H-indole-2-carboxylic acid [I-140]”, on Rheb, the “ASMS (R3/R0)” value is “B (an affinity (R3/R0) between 100% and 20%)”. Also, the pIC50 in test [1] was 4.00 to 5.00.

For the molecule “4-((6-chloro-4-(3,4-dichlorophenoxy)-1H-indol-1-yl)methyl)benzoic acid [I-146]”, the “ASMS (R3/R0)” value at Rheb was “B (an affinity (R3/R0) between 100% and 20%)”. Besides, the pIC50 in test [1] was above 5.00.

For “4-bromo-6-(3,4-dichlorophenylthio)-1-(4-((2-hydroxyethyl)(methyl)carbamoyl)benzyl)-1H-indole-2-carboxylic acid [I-51]”, the “ASMS (R3/R0)” value on Rheb is “B (an affinity (R3/R0) between 100% and 20%)”. In test [1], the pIC50 was above 5.00.

For “5,6-dichloro-4-(4-chlorobenzyloxy)-1H-benzo[d]imidazole-2-carboxylic acid [I-330]”, the “ASMS (R3/R0)” value on Rheb was “B (an affinity (R3/R0) between 100% and 20%)”. For the same molecule, the pIC50 in test [1] is below 4.00.

As for “7-chloro-6-(3,4-dichlorophenylthio)-4-fluoro-1H-indole-2-carboxylic acid [I-66]”, the “ASMS (R3/R0)” value at Rheb is “B (an affinity (R3/R0) between 100% and 20%)”. In addition, in test [1], the pIC50 is above 5.00.

For the molecule `CC(=O)N[C@@H]1CCCC[C@@H]1COc1c(Cl)c(Cl)cc2[nH]c(CO)nc12` (racemic) [I-369], the “ASMS (R3/R0)” value at Rheb was “C (an affinity (R3/R0)<20%)”. The pIC50 in test [1] was 4.00 to 5.00.

Regarding `N[C@@H]1CCCC[C@@H]1COc1c(Cl)c(Cl)cc2[nH]c(CO)nc12` (racemic) [I-376, (4-(((+,−)-cis-2-aminocyclohexyl)methoxy)-5,6-dichloro-1H-benzo[d]imidazol-2-yl)methanol], the “ASMS (R3/R0)” value on Rheb is given as “C (an affinity (R3/R0)<20%)”. The negative logarithm of the IC50 (pIC50) in test [1] was 3.52 to 4.00.

`OCc1nc2c(OC[C@H]3CNCC[C@@H]3O)c(Cl)c(Cl)cc2[nH]1` (racemic) [I-385]: the “ASMS (R3/R0)” value at Rheb is recorded as “C (an affinity (R3/R0)<20%)”. Further, the pIC50 in test [1] is below 4.00.

For the molecule `OCc1nc2c(OC[C@H]3CNCC[C@H]3O)c(Cl)c(Cl)cc2[nH]1` (racemic) [I-386], the “ASMS (R3/R0)” value at Rheb is “C (an affinity (R3/R0)<20%)”. Also, the negative-log IC50 (pIC50) in test [1] is below 4.00.

Take `OCc1nc2c(OC[C@H]3CCCC[C@H]3O)c(Cl)c(Cl)cc2[nH]1` (racemic) [I-394, (+,−)-cis-2-((5,6-dichloro-2-(hydroxymethyl)-1H-benzo[d]imidazol-4-yloxy)methyl)cyclohexanol]: on Rheb, the “ASMS (R3/R0)” value was “B (an affinity (R3/R0) between 100% and 20%)”. In addition, the negative logarithm of the IC50 (pIC50) in test [1] was 4.00 to 5.00.

As for `OCc1nc2c(OC[C@H]3CCCC[C@@H]3O)c(Cl)c(Cl)cc2[nH]1` (single isomer, unassigned) [I-388], the “ASMS (R3/R0)” value at Rheb was “B (an affinity (R3/R0) between 100% and 20%)”. In addition, in test [1], the pIC50 is 4.00 to 5.00.

Regarding `OCc1nc2c(OC[C@H]3CCCC[C@H]3O)c(Cl)c(Cl)cc2[nH]1` (single isomer, unassigned) [I-389], at Rheb, the “ASMS (R3/R0)” value is reported as “C (an affinity (R3/R0)<20%)”. Moreover, the negative logarithm of the IC50 (pIC50) in test [1] was below 4.00.

On to `CN(C)C(=O)c1ccc(Cn2c(C(=O)O)cc3cc(-c4ccccc4)c(Sc4ccc(Cl)c(Cl)c4)cc32)cc1` [I-2], for which the “ASMS (R3/R0)” value on Rheb is “B (an affinity (R3/R0) between 100% and 20%)”. Also, the pIC50 in test [1] was above 5.00.

On to `CN(C)C(=O)c1ccc(Cn2c(C(=O)O)cc3c(Br)nc(Sc4ccc(Cl)c(Cl)c4)cc32)cc1` [I-3, 4-bromo-6-(3,4-dichlorophenylthio)-1-(4-(dimethylcarbamoyl)benzyl)-1H-pyrrolo[3,2-c]pyridine-2-carboxylic acid], for which, at Rheb, the “ASMS (R3/R0)” value is “B (an affinity (R3/R0) between 100% and 20%)”. Moreover, in test [1], the pIC50 is 4.00 to 5.00.

As to `CN(C)C(=O)c1ccc(Cn2c(C(=O)O)cc3c(Cl)nc(Sc4ccc(Cl)c(Cl)c4)cc32)cc1` [I-4, 4-chloro-6-(3,4-dichlorophenylthio)-1-(4-(dimethylcarbamoyl)benzyl)-1H-pyrrolo[3,2-c]pyridine-2-carboxylic acid], the “ASMS (R3/R0)” value on Rheb was “B (an affinity (R3/R0) between 100% and 20%)”. Moreover, the pIC50 in test [1] was 4.00 to 5.00.

Consider `CC(c1ccc(C(=O)N(C)C)cc1)n1c(C(=O)O)cc2c(Br)cc(Sc3ccc(Cl)c(Cl)c3)cc21` (stereo not shown) [I-5, 4-bromo-6-(3,4-dichlorophenylthio)-1-(1-(4-(dimethylcarbamoyl)phenyl)ethyl)-1H-indole-2-carboxylic acid], for which the “ASMS (R3/R0)” value at Rheb was “B (an affinity (R3/R0) between 100% and 20%)”. Further, the pIC50 in test [1] was above 5.00.

For the molecule `N#CCc1nc2c(OCc3ccccc3)c(Cl)ccc2[nH]1` [I-469], the pIC50 in test [1] is below 4.00.

For the molecule `OCc1nc2c(Oc3ccccc3)cccc2[nH]1` [I-470], in test [1], the pIC50 is below 4.00.

`N#CCc1nc2c(Oc3ccccc3)cccc2[nH]1` [I-471]: the pIC50 in test [1] was below 4.00.

In the case of `N#Cc1ccccc1COc1c(Cl)c(Cl)cc2[nH]c(CO)nc12` [I-472], the pIC50 in test [1] is below 4.00.

As for `N#CCc1nc2cc(OCc3ccccc3)c(Cl)cc2[nH]1` [I-473], the pIC50 in test [1] was below 4.00.

Regarding `Clc1cc2nc(-c3cnon3)n(Cc3ccc(-c4nn[nH]n4)cc3)c2cc1Cl` [I-474, 3-(1-(4-(2H-tetrazol-5-yl)benzyl)-5,6-dichloro-1H-benzo[d]imidazol-2-yl)-1,2,5-oxadiazole], in test [1], the pIC50 was 3.10 to 3.52.

Regarding `NC(=O)Cn1c(CO)nc2cc(OCc3ccccc3)c(Cl)cc21` [I-475, 2-(5-(benzyloxy)-6-chloro-2-(hydroxymethyl)-1H-benzo[d]imidazol-1-yl)acetamide], in test [1], the pIC50 is 3.52 to 4.00.

As for `NC(=O)Cn1c(CO)nc2cc(Cl)c(OCc3ccccc3)cc21` [I-476], the negative-log IC50 (pIC50) in test [1] is below 4.00.

As to `Nc1nonc1-c1nc2cc(Cl)c(Cl)cc2[nH]1` [I-477], the pIC50 in test [1] was below 4.00.

With `OCc1nc2cc(OCc3cccc(Cl)c3)c(Cl)cc2[nH]1` [I-478, (5-chloro-6-(3-chlorobenzyloxy)-1H-benzo[d]imidazol-2-yl)methanol], in test [1], the pIC50 was 3.10 to 3.52.

For `CCCn1c(CO)nc2cc(OCc3ccccc3)c(Cl)cc21` [I-479], in test [1], the pIC50 is below 4.00.

For the molecule `CCCn1c(CO)nc2cc(Cl)c(OCc3ccccc3)cc21` [I-480], the pIC50 in test [1] was below 4.00.

Consider `OCc1nc2cc(OCc3ccc(F)cc3)c(Cl)cc2[nH]1` [I-482, (6-chloro-5-(4-fluorobenzyloxy)-1H-benzo[d]imidazol-2-yl)methanol], for which, in test [1], the negative-log IC50 (pIC50) was 3.52 to 4.00.

On to `OCc1nc2cc(OCCc3ccccc3)c(Cl)cc2[nH]1` [I-483, (6-chloro-5-phenethoxy-1H-benzo[d]imidazol-2-yl)methanol], for which the pIC50 in test [1] was 3.10 to 3.52.

With `OCc1nc2cc(OCc3ccccc3Cl)c(Cl)cc2[nH]1` [I-485, (5-chloro-6-(2-chlorobenzyloxy)-1H-benzo[d]imidazol-2-yl)methanol], the pIC50 in test [1] is 3.10 to 3.52.

As to `CCn1c(CO)nc2cc(OCc3ccccc3)c(Cl)cc21` [I-487], the pIC50 in test [1] was below 4.00.

Regarding `CCn1c(CO)nc2cc(Cl)c(OCc3ccccc3)cc21` [I-488], the pIC50 in test [1] was below 4.00.

Regarding `Nc1nonc1-c1nc2cc(Cl)c(Cl)cc2n1Cc1ccc(-c2nn[nH]n2)cc1` [I-490, 4-(1-(4-(2H-tetrazol-5-yl)benzyl)-5,6-dichloro-1H-benzo[d]imidazol-2-yl)-1,2,5-oxadiazol-3-amine], in test [1], the pIC50 was 4.00 to 5.00.

On to `Nc1nonc1-c1nc2cc(Cl)c(Cl)cc2n1Cc1ccccc1` [I-491], for which the pIC50 in test [1] is below 4.00.

With “(4-(2-(2-aminopyridin-4-yl)ethoxy)-5,6-dichloro-1H-benzo[d]imidazol-2-yl)methanol [I-182]”, the pIC50 in test [1] is below 4.00.
